In US20140107021A1 (priority 2010, published 2014):
Numbered stars: 1 amine (or outer) side, 2 acyl side, 3 side chain; on linkers, the order of the positions; unused ones are H or OH. Square brackets hold non-standard residues; d marks the D form. Side chains are listed from the residue outwards. Ends that are not written are not given here. Peptide text beside a SMILES is read from it. γGlu = O=C(O)[C@H](CCC(=O)[*:2])N[*:1]; C16 acyl = 16 carbon fatty acyl group; Aib = CC(C)(N)C(=O)O

How the values were obtained:
solubility at pH 6-8 = format: physicochemical
glucagon receptor [1] = molecular target: T1, glucagon receptor (Homo sapiens, UniProt P47871); experiment: cell-based; conditions: Table J
T1 sequence (P47871 26-477): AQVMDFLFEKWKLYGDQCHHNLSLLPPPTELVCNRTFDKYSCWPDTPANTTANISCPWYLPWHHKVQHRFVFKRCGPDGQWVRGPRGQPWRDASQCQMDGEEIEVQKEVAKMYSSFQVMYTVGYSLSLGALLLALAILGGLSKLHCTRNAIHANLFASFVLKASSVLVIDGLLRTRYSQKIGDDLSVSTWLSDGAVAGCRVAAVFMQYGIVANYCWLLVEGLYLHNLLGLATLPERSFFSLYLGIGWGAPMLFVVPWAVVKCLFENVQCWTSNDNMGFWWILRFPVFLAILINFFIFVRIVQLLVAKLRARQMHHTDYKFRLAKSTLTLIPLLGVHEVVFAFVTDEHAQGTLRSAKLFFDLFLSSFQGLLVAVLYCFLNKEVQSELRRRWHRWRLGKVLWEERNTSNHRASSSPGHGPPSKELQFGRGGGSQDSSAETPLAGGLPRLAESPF
Source text: (§1) HEK293 cells co-transfected with the receptor and luciferase gene linked to a cAMP responsive element were employed for the bioassay.
(§2) All EC50s and IC50s are reported in the following examples in nM, unless indicated otherwise.

glucagon receptor [2] = molecular target: T1, glucagon receptor; experiment: glucagon receptor binding; design: expressed in transfected cells; host or cells: HEK293; conditions: read-out: IC50(nM) (Receptor binding)
GIP receptor = molecular target: T2, GIP receptor (Homo sapiens, UniProt P48546); experiment: cAMP induction at the GIP receptor (agonist activity), luciferase reporter assay in HEK293 cells; format: cell-based
T2 construct: expressed in transfected cells; host or cells: HEK293
T2 sequence (P48546 22-466): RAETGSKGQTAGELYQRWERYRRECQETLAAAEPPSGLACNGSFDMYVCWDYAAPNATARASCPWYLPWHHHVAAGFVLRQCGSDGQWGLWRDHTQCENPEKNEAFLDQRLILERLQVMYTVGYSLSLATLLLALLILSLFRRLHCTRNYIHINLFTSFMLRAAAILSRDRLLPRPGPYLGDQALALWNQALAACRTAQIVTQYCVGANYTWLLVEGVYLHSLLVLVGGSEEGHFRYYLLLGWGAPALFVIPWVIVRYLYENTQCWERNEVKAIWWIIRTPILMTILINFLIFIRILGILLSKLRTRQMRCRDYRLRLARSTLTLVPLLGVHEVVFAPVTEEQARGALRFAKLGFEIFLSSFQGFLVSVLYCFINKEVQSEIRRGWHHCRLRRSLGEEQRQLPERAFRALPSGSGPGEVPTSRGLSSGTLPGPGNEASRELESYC
Source text: as §1, §2

GLP-1 receptor = molecular target: T3, GLP-1 receptor (Homo sapiens, UniProt P43220); experiment: cAMP induction at the GLP-1 receptor (agonist activity), firefly luciferase reporter assay in HEK293 cells; format: cell-based
T3 construct: expressed in transfected cells; host or cells: HEK293
T3 sequence (P43220 24-463): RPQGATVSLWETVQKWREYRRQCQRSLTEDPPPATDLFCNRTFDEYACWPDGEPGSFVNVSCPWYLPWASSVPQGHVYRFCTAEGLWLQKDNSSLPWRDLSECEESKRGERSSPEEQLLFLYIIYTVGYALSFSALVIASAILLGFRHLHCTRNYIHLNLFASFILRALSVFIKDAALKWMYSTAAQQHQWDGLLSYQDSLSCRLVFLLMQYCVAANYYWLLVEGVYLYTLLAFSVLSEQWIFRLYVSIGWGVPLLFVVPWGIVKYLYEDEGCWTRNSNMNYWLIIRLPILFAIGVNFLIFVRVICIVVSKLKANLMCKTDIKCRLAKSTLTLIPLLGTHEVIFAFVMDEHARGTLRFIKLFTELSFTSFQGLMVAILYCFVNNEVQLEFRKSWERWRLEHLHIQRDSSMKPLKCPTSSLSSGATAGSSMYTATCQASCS
Source text: as §1, §2

glucagon receptor [3] = molecular target: T1, glucagon receptor; experiment: cAMP induction at the glucagon receptor (agonist activity), luciferase reporter assay in HEK293 cells; format: cell-based; design: expressed in transfected cells; host or cells: HEK293
Source text: as §1, §2

[4] = Example 8: acylated peptides injected subcutaneously daily for one week into DIO mice; format: in vivo, DIO mice (C57Bl/6 WT); conditions: 10 nmol/kg subcutaneously daily for one week
Procedure: Different doses of acylated peptides comprising a Lys at position 16 and an AIB at position 20 were tested in vivo. […] The mice had been on a high fat diet diet for ˜8 months. Body weight and food intake were measured on days 0, 1, 3, 5, and 7, whereas blood glucose levels were measured on Days 0 and 7 of the experiment. Each test group and control group consisted of 8 mice.

[5] = format: in vivo, C57Bl/6 mice; conditions: 30 nmol/kg subcutaneously daily for one week
[6] = IC50(nM) (cAMP, inhibit Glucagon) 0.1 nM, inhibit 0.1 nM glucagon
[7] = Table 7, relative to the native ligand of the receptor

| Molecule | Solubility (%, pH 6-8) (solubility at pH 6-8) | IC50 (glucagon receptor [1]; [6]) | IC50 (glucagon receptor [2]; Table J) | further results |
| --- | --- | --- | --- | --- |
| CSCC[C@H](NC(=O)[C@H](CC(C)C)NC(=O)[C@H](Cc1c[nH]c2ccccc12)NC(=O)[C@H](CCC(N)=O)NC(=O)[C@@H](NC(=O)[C@H](Cc1ccccc1)NC(=O)[C@H](CC(=O)O)NC(=O)[C@H](CCC(N)=O)NC(=O)[C@H](C)NC(=O)[C@H](CCCNC(=N)N)NC(=O)[C@H](CCCNC(=N)N)NC(=O)[C@H](CO)NC(=O)[C@H](CC(=O)O)NC(=O)[C@H](CC(C)C)NC(=O)[C@H](Cc1ccc(O)cc1)NC(=O)[C@H](CCCCN)NC(=O)[C@H](CO)NC(=O)[C@H](Cc1ccc(O)cc1)NC(=O)[C@H](CC(=O)O)NC(=O)[C@H](CO)NC(=O)[C@@H](NC(=O)[C@@H](O)Cc1ccccc1)[C@@H](C)O)C(C)C)C(=O)N[C@@H](CC(=O)O)C(=O)N[C@H](C(N)=O)[C@@H](C)O [[PLA6, D9, D28]Glucagon(aa6-29)-NH2] | 100% | – | – | – |
| CSCC[C@H](NC(=O)[C@H](CC(C)C)NC(=O)[C@H](Cc1c[nH]c2ccccc12)NC(=O)[C@H](CCC(N)=O)NC(=O)[C@@H](NC(=O)[C@H](Cc1ccccc1)NC(=O)[C@H](CC(=O)O)NC(=O)[C@H](CCC(N)=O)NC(=O)[C@H](C)NC(=O)[C@H](CCCNC(=N)N)NC(=O)[C@H](CCCNC(=N)N)NC(=O)[C@H](CO)NC(=O)[C@H](CC(=O)O)NC(=O)[C@H](CC(C)C)NC(=O)[C@H](Cc1ccc(O)cc1)NC(=O)[C@H](CCCCN)NC(=O)[C@H](CO)NC(=O)[C@H](Cc1ccc(O)cc1)NC(=O)[C@H](CC(=O)O)NC(=O)[C@H](CO)NC(=O)[C@@H](NC(=O)[C@@H](O)Cc1ccccc1)[C@@H](C)O)C(C)C)C(=O)N[C@@H](CC(N)=O)C(=O)N[C@H](C(=O)O)[C@@H](C)O [[PLA6, D9]Glucagon(aa6-29)-COOH] (HELM PEPTIDE1{[O=C([C@@H](O)Cc1ccccc1)[*:2]].T.S.D.Y.S.K.Y.L.D.S.R.R.A.Q.D.F.V.Q.W.L.M.N.T}$$$$V2.0) | 96% | 13.2 nM | – | – |
| CSCC[C@H](NC(=O)[C@H](CC(C)C)NC(=O)[C@H](Cc1c[nH]c2ccccc12)NC(=O)[C@H](CCC(N)=O)NC(=O)[C@@H](NC(=O)[C@H](Cc1ccccc1)NC(=O)[C@H](CC(=O)O)NC(=O)[C@H](CCC(N)=O)NC(=O)[C@H](C)NC(=O)[C@H](CCCNC(=N)N)NC(=O)[C@H](CCCNC(=N)N)NC(=O)[C@H](CO)NC(=O)[C@H](CC(=O)O)NC(=O)[C@H](CC(C)C)NC(=O)[C@H](Cc1ccc(O)cc1)NC(=O)[C@H](CCCCN)NC(=O)[C@H](CO)NC(=O)[C@H](Cc1ccc(O)cc1)NC(=O)[C@H](CC(=O)O)NC(=O)[C@H](CO)NC(=O)[C@@H](NC(=O)[C@@H](O)Cc1ccccc1)[C@@H](C)O)C(C)C)C(=O)N[C@@H](CC(N)=O)C(=O)N[C@H](C(N)=O)[C@@H](C)O [[PLA6, D9]Glucagon(aa6-29)-NH2] (HELM PEPTIDE1{[O=C([C@@H](O)Cc1ccccc1)[*:2]].T.S.D.Y.S.K.Y.L.D.S.R.R.A.Q.D.F.V.Q.W.L.M.N.T.[am]}$$$$V2.0) | 11% | – | 13.9 ± 3.22 nM | – |
| CSCC[C@H](NC(=O)[C@H](CC(C)C)NC(=O)[C@H](Cc1c[nH]c2ccccc12)NC(=O)[C@H](CCC(N)=O)NC(=O)[C@@H](NC(=O)[C@H](Cc1ccccc1)NC(=O)[C@H](CC(=O)O)NC(=O)[C@H](CCC(N)=O)NC(=O)[C@H](C)NC(=O)[C@H](CCCNC(=N)N)NC(=O)[C@H](CCCNC(=N)N)NC(=O)[C@H](CO)NC(=O)[C@H](CC(=O)O)NC(=O)[C@H](CC(C)C)NC(=O)[C@H](Cc1ccc(O)cc1)NC(=O)[C@H](CCCCN)NC(=O)[C@H](CO)NC(=O)[C@H](Cc1ccc(O)cc1)NC(=O)[C@H](CCC(=O)O)NC(=O)[C@H](CO)NC(=O)[C@@H](NC(=O)[C@@H](O)Cc1ccccc1)[C@@H](C)O)C(C)C)C(=O)N[C@@H](CC(N)=O)C(=O)N[C@H](C(=O)NCC(=O)N1CCC[C@H]1C(=O)N[C@@H](CO)C(=O)N[C@@H](CO)C(=O)NCC(=O)N[C@@H](C)C(=O)N1CCC[C@H]1C(=O)N1CCC[C@H]1C(=O)N1CCC[C@H]1C(=O)N[C@@H](CO)C(N)=O)[C@@H](C)O [[PLA6, E9]Glucagon (aa6-29 + CEX)-NH2] (HELM PEPTIDE1{[O=C([C@@H](O)Cc1ccccc1)[*:2]].T.S.E.Y.S.K.Y.L.D.S.R.R.A.Q.D.F.V.Q.W.L.M.N.T.G.P.S.S.G.A.P.P.P.S.[am]}$$$$V2.0) | 16% | 24.8 nM | 40.3 ± 11.3 nM | – |
| CSCC[C@H](NC(=O)[C@H](CC(C)C)NC(=O)[C@H](Cc1c[nH]c2ccccc12)NC(=O)[C@H](CCC(N)=O)NC(=O)[C@@H](NC(=O)[C@H](Cc1ccccc1)NC(=O)[C@H](CC(=O)O)NC(=O)[C@H](CCC(N)=O)NC(=O)[C@H](C)NC(=O)[C@H](CCCNC(=N)N)NC(=O)[C@H](CCCNC(=N)N)NC(=O)[C@H](CO)NC(=O)[C@H](CC(=O)O)NC(=O)[C@H](CC(C)C)NC(=O)[C@H](Cc1ccc(O)cc1)NC(=O)[C@H](CCCCN)NC(=O)[C@H](CO)NC(=O)[C@H](Cc1ccc(O)cc1)NC(=O)[C@H](CCC(=O)O)NC(=O)[C@H](CO)NC(=O)[C@@H](NC(=O)[C@@H](O)Cc1ccccc1)[C@@H](C)O)C(C)C)C(=O)N[C@@H](CC(N)=O)C(=O)N[C@H](C(N)=O)[C@@H](C)O [[PLA6, E9]Glucagon(aa6-29)-NH2] (HELM PEPTIDE1{[O=C([C@@H](O)Cc1ccccc1)[*:2]].T.S.E.Y.S.K.Y.L.D.S.R.R.A.Q.D.F.V.Q.W.L.M.N.T.[am]}$$$$V2.0) | 11% | 2.39 nM | 12.3 ± 2.24 nM | IC50 (glucagon receptor [1]; IC50(nM) (cAMP, inhibit Glucagon) 0.2 nM, inhibit 0.2 nM glucagon): 42.4 nM; IC50 (glucagon receptor [2]; Table K): 12.3 ± 0.13 nM |
| Q3I7K16AIB20K10(rErE-C16) (Y[Aib]QGTFISDK([γGlu-γGlu-C16 acyl])SIYLDKQAA[Aib]EFVNWLLAGGPSSGAPPPS-NH2) [MT-385] | – | – | – | % Relative Activity at GIPR (GIP receptor; [7]): 715%; % Relative Activity GLP-1R (GLP-1 receptor; [7]): 3%; % Relative Activity at GR (glucagon receptor [3]; [7]): 239%; total change in body weight (%) [4]: lower change in body weight |
| Y1Aib2I12K16Q17A18Aib20E21N24-LAG27-29-CEX-K (YXQGTFTSDYSIYLDKQAAXEFVNWLLAGGPSSGAPPPSK; HELM PEPTIDE1{Y.[Aib].Q.G.T.F.T.S.D.Y.S.I.Y.L.D.K.Q.A.A.[Aib].E.F.V.N.W.L.L.A.G.G.P.S.S.G.A.P.P.P.S.K.[am]}$$$$V2.0; N-terminus assumed; SMILES CC[C@H](C)[C@H](NC(=O)[C@H](CO)NC(=O)[C@H](Cc1ccc(O)cc1)NC(=O)[C@H](CC(=O)O)NC(=O)[C@H](CO)NC(=O)[C@@H](NC(=O)[C@H](Cc1ccccc1)NC(=O)[C@@H](NC(=O)CNC(=O)[C@H](CCC(N)=O)NC(=O)C(C)(C)NC(=O)[C@@H](N)Cc1ccc(O)cc1)[C@@H](C)O)[C@@H](C)O)C(=O)N[C@@H](Cc1ccc(O)cc1)C(=O)N[C@@H](CC(C)C)C(=O)N[C@@H](CC(=O)O)C(=O)N[C@@H](CCCCN)C(=O)N[C@@H](CCC(N)=O)C(=O)N[C@@H](C)C(=O)N[C@@H](C)C(=O)NC(C)(C)C(=O)N[C@@H](CCC(=O)O)C(=O)N[C@@H](Cc1ccccc1)C(=O)N[C@H](C(=O)N[C@@H](CC(N)=O)C(=O)N[C@@H](Cc1c[nH]c2ccccc12)C(=O)N[C@@H](CC(C)C)C(=O)N[C@@H](CC(C)C)C(=O)N[C@@H](C)C(=O)NCC(=O)NCC(=O)N1CCC[C@H]1C(=O)N[C@@H](CO)C(=O)N[C@@H](CO)C(=O)NCC(=O)N[C@@H](C)C(=O)N1CCC[C@H]1C(=O)N1CCC[C@H]1C(=O)N1CCC[C@H]1C(=O)N[C@@H](CO)C(=O)N[C@@H](CCCCN)C(N)=O)C(C)C) [MT-280] | – | – | – | change in blood glucose levels over the course of the 7-day study [5]: significant decrease in blood glucose levels; % Relative Activity at GIPR (GIP receptor; Table 8): 154%; % Relative Activity GLP-1R (GLP-1 receptor; Table 8): 225%; % Relative Activity at GR (glucagon receptor [3]; Table 8): 60% |
